Test results reported in PMC4210890, “Suvanine Sesterterpenes from a Tropical Sponge Coscinoderma sp. Inhibit Isocitrate Lyase in the Glyoxylate Cycle” (Marine Drugs, 2014).
≈ marks a conversion by molar mass, not a printed value. Where “and” joins values, the source holds several entries; their conditions need not be identical. Identical values can stand only once. Like-named read-outs stand apart in the source and are kept apart here.

Tests used:
C. albicans SC5314 = assay: In vitro growth assay (MIC) in YNB broth with glucose or acetate; type: cell-based, Candida albicans; settings: 3 days at 28 °C; for MIC: Candida albicans, 72 h
Experimental: The microbial strategy for survival during growth in a nutrient-free environment entails a metabolic shift in the carbon source to C2 substrates generated by β-oxidation of fatty acids. […] To investigate whether ICL inhibitors affected C2 substrate use, we cultured C. albicans strain SC5314 in YNB broth containing either 2% glucose or 2% potassium acetate as the sole carbon source, and inhibition was evaluated based on the MIC.
C. albicans strains were grown in YNB ([…] yeast nitrogen base) broth containing 2% glucose at 28 °C for 24 h, harvested by centrifugation, and washed twice with sterile distilled water. Each test compound was dissolved in DMSO and diluted with YNB containing 2% glucose or 2% potassium acetate to prepare serial twofold dilutions in the range 100–0.1 μg/mL. The final DMSO concentration was maintained at 0.5% by adding DMSO to the medium. Twenty microliters of the broth containing test fungus was added to each well of a 96-well microtiter plate (final concentration of 1 × 10^4 cells/mL). Culture plates were incubated for 3 days at 28 °C. […] Amphotericin B was used as a reference compound.

[1] = target: T1, recombinant ICL from C. albicans ATCC 10231 (Candida albicans, UniProt Q9P8Q7); assay: biochemical
T1 construct: thioredoxin (fusion partner of the pBAD/Thio-TOPO vector); made in house; host or cells: Escherichia coli TOP10
T1 sequence (Q9P8Q7 whole entry, the tested form may be a part): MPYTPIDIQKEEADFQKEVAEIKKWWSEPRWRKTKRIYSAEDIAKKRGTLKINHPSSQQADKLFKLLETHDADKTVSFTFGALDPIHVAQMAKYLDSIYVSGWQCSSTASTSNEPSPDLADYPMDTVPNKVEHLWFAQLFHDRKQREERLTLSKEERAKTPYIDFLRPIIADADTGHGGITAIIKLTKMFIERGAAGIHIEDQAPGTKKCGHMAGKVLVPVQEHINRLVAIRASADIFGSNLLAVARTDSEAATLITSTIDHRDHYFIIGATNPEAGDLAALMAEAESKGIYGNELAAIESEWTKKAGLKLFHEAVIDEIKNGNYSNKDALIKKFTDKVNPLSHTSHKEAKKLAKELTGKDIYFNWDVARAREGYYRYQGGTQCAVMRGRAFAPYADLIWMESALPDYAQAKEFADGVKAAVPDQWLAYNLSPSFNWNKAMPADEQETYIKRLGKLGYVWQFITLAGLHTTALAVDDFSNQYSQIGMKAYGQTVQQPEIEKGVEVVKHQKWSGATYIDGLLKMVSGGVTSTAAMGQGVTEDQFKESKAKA
Experimental: Compound 1−9 were obtained as mentioned previously (Figure 1). The expression and purification of recombinant ICL from the genomic DNA of C. albicans (ATCC 10231) were carried out by a method described previously. The inhibitory effects of the isolated compounds on ICL were evaluated according to a procedure documented previously. The basic concept of this method was to measure spectrophotometrically the formation of glyoxylate phenylhydrazone in the presence of phenylhydrazine and isocitrate. The effect of the inhibitor on ICL was calculated as a percentage relative to dimethyl sulfoxide (DMSO)-treated control. Mixture of ICL, substrate, phenyhydrazine was incubated for 30 min with various concentrations of suvanine sesterterpenes (100 to 0.1 μg/mL). The formation of glyoxylate phenylhydrazone was followed spectrophotometrically at 324 nm. Data were scaled to internal controls, and a four- parameter logistic model (GraphPad ver. 5.0, Prism) was used to fit the measured data and determine IC50 (inhibitory concentration for 50% activity) values.
The preparation of recombinant ICL protein from the genomic DNA of C. albicans ATCC 10231 was carried out using a method described previously. Briefly, ICL was PCR-amplified using two synthetic primers: 5′-[…]-3′ (forward) and 5′-[…]-3′ (reverse). The PCR product was cloned into the pBAD/Thio-TOPO vector (Invitrogen, Carlsbad, CA, USA) and transformed into Escherichia coli TOP10 (Invitrogen).
The effect of isolated compounds on ICL was evaluated according to a procedure documented previously. A 1-mL aliquot of the reaction mixture contained 20 mM sodium phosphate buffer (pH 7.0), 1.27 mM threo-DL (+) isocitrate, 3.75 mM MgCl2, 4.1 mM phenylhydrazine and 2.5 μg/mL purified ICL. The reaction was performed at 37 °C for 30 min with and without a prescribed concentration of the inhibitor dissolved in DMSO (final concentration, 0.5%). The formation of glyoxylate phenylhydrazone was followed spectrophotometrically at 324 nm. The effect of the inhibitor on ICL was calculated as a percentage relative to the solvent-treated control. A 12-point, twofold serial dilution dose–response assay was performed in triplicate. The resultant dose–response concentration range was 100 to 0.1 μg/mL of inhibitor in a 1-mL final reaction volume. Data were scaled to internal controls, and a four-parameter logistic model (GraphPad ver. 5.0, Prism) was used to fit the measured data and determine the IC50 values. The ICL inhibitor 3-nitropropionate was used as a positive control. Protein concentration was determined by the method of Bradford using the Bio-Rad protein assay kit (Bio-Rad, Hercules, CA, USA) and bovine serum albumin as a standard.

ICL from C. albicans = ICL from C. albicans (Candida albicans, UniProt Q9P8Q7); assay: biochemical; type: biochemical; settings: for type of inhibition: Lineweaver and Burk plot at IC50 or twofold IC50; for reversibility of binding to enzyme: enzyme activity recovered by dialysis within 2 h
Sequence of ICL from C. albicans (Q9P8Q7 whole entry): as the sequence (Q9P8Q7 whole entry, the tested form may be a part) above
Experimental: To determine the type of inhibition, kinetic studies were performed with compounds 1, 2 and 4 at IC50 or twofold IC50 based on Lineweaver and Burk plot (Figure 3). Inhibitor constants were obtained by Dixon plot.
Figure 3 Lineweaver-Burk plot of ICL inhibition by compounds 1, 2 and 4. [S], substrate concentration [mM]; V, reaction velocity (∆absorbance unit/min). Each data point represents the mean of three experiments.

[2] = system: C. albicans strain SC5314 (wild-type), MRC10 (Δicl), and MRC11 (Δicl + ICL); assay: Growth phenotype of wild-type and ICL deletion mutants on YNB agar plates; type: cell-based, Candida albicans; settings: 12.5 μg/mL, 3 days at 28 °C
[3] = system: ICL mRNA expression in C. albicans; assay: Semi-quantitative RT-PCR analysis of ICL mRNA expression; type: cell-based, Candida albicans; settings: acetate medium
[4] = YNB broth with 2% glucose, read-out: MIC, Glucose
[5] = YNB broth with 2% potassium acetate, read-out: MIC, Acetate
[6] = YNB broth with 2% potassium acetate
[7] = recombinant ICL from C. albicans ATCC 10231, 37 °C, 30 min, mean ± SD (n = 3), read-out: ICL IC50
[8] = recombinant ICL from C. albicans ATCC 10231, value in parentheses
[9] = recombinant ICL from C. albicans ATCC 10231, value in parentheses, read-out: ICL IC50

Compound | MIC (C. albicans SC5314; [4]) | MIC (C. albicans SC5314; [5]) | IC50 ([1]; ICL IC50) | IC50 [1, 7] | further results
C[C@@H]1[C@H](O)[C@@H](C)/C=C/C=C/C=C/C=C/C=C/C=C/C=C/[C@H](O[C@@H]2O[C@H](C)[C@@H](O)[C@H](N)[C@@H]2O)C[C@@H]2O[C@](O)(C[C@@H](O)C[C@@H](O)[C@H](O)CC[C@@H](O)C[C@@H](O)CC(=O)O[C@H]1C)C[C@H](O)[C@H]2C(=O)O [Amph B, Amphotericin B, reference compound] | 1.56 µg/mL (≈ 1.69 µM) | 0.39 µg/mL (≈ 0.422 µM) | – | – | –
CC1(C)CCC[C@]2(C)[C@H]3CC/C(=C\OS(=O)(=O)[O-])[C@H](CCc4ccoc4)[C@@]3(C)CC[C@@H]12.C[N+](C)=C(N)N [Compound 1, suvanine salt] | – | – | – | – | ICL IC50 [1]: 22.43 ± 1.49 (12.03 ± 0.80) µg/mL; IC50 ([1]; read-out: ICL IC50): 22.4 µM; type of inhibition (ICL from C. albicans): uncompetitive inhibitor; reversibility of binding to enzyme (ICL from C. albicans): reversible; Ki (ICL from C. albicans; obtained by Dixon plot, read-out: Ki (inhibitor constant)): 17.4 µM; MIC, Glucose (C. albicans SC5314; YNB broth with 2% glucose): 100 µg/mL; MIC, Acetate (C. albicans SC5314; [6]): 25 µg/mL
CC1(C)CCC[C@]2(C)[C@H]3CC/C(=C\OS(=O)(=O)[O-])[C@H](CCc4ccoc4)[C@@]3(C)CC[C@@H]12.[Na+] [Compound 2, suvanine salt] | 100 µg/mL | 12.5 µg/mL | 6.35 µM | – | Ki (ICL from C. albicans): 14.4 µM; type of inhibition (ICL from C. albicans): mixed noncompetitive inhibitors; reversibility of binding to enzyme (ICL from C. albicans): reversible; MIC, Acetate (C. albicans SC5314; [6]): 12.5 µg/mL; growth on YNB agar plates containing glucose plus compound ([2]; SC5314, MRC10, MRC11, 2% glucose): grew normally; growth on YNB agar plates containing acetate plus compound ([2]; all tested strains, 2% sodium acetate): inhibited markedly; reduction of ICL mRNA expression ([3]; 12.5 μg/mL, 4 h at 28 °C, densitometric analysis): seventeenfold; ICL transcript levels with increasing compound concentration ([3]; SC5314 and MRC11, 6.25 and 12.5 µg/mL): diminished with increasing compound 2 concentrations
O=C(O)CC[N+](=O)[O-] [Compound 3-NP, 3-Nitropropinate, reference compound] | – | – | – | 17.3 ± 1.04 µM | ICL IC50 [1, 8]: 2.06 ± 0.12 µg/mL; MIC, Glucose (C. albicans SC5314; YNB broth with 2% glucose): >100 µg/mL; MIC, Acetate (C. albicans SC5314; [6]): >100 µg/mL
CC1(C)CCC[C@]2(C)[C@H]3CC/C(=C\OS(=O)(=O)[O-])[C@H](CCC4=CC(=O)O[C@@H]4O)[C@@]3(C)CC[C@@H]12.[Na+] [Compound 3] | > 100 µg/mL | > 100 µg/mL | – | 56.2 ± 7.1 µM | ICL IC50 [1, 8]: 28.33 ± 3.58 µg/mL
CC1(C)CCC[C@]2(C)[C@H]3CC/C(=C\OS(=O)(=O)[O-])[C@H](CCC4=CC(=O)OC4)[C@@]3(C)CC[C@@H]12.[Na+] [Compound 4] | > 100 µg/mL | 100 µg/mL | 26.3 µM and 26.2 µM | – | Ki (ICL from C. albicans): 62.6 µM; type of inhibition (ICL from C. albicans): mixed noncompetitive inhibitors; reversibility of binding to enzyme (ICL from C. albicans): reversible
CO[C@@H]1C=C(CC[C@H]2/C(=C/OS(=O)(=O)[O-])CC[C@H]3[C@]2(C)CC[C@H]2C(C)(C)CCC[C@]32C)C(=O)O1.[Na+] [Compound 5] | > 100 µg/mL | > 100 µg/mL | – | 50.2 ± 6.27 µM | IC50 [1, 9]: 50.2 ± 3.25 µM
CO[C@H]1C=C(CC[C@H]2/C(=C/OS(=O)(=O)[O-])CC[C@H]3[C@]2(C)CC[C@H]2C(C)(C)CCC[C@]32C)C(=O)O1.[Na+] [Compound 6] | > 100 µg/mL | 100 µg/mL | – | 96.2 ± 1.54 µM | IC50 [1, 9]: 96.08 ± 0.799 µM
CO[C@H]1C=C(CC[C@H]2/C(=C/OS(=O)(=O)[O-])CC[C@H]3[C@]2(C)CC[C@H]2C(C)(C)CCC[C@]32C)[C@@H](OC)O1.[Na+] [Compound 7] | > 100 µg/mL | > 100 µg/mL | 59.1 µM and 51.1 µM | – | –
CO[C@@H]1O[C@H](OC)[C@](O)(CC[C@H]2/C(=C/OS(=O)(=O)O)CC[C@H]3[C@]2(C)CC[C@H]2C(C)(C)CCC[C@]32C)[C@H]1O [Compound 8] | > 100 µg/mL | > 100 µg/mL | 67.6 µM | – | –
CC1(C)CCC[C@]2(C)[C@H]3CC/C(=C\OS(=O)(=O)[O-])[C@H](CCC4=CCNC4=O)[C@@]3(C)CC[C@@H]12.[Na+] [Compound 9] | > 100 µg/mL | > 100 µg/mL | – | 59.2 ± 1.11 µM | IC50 [1, 9]: 59.1 ± 0.54 µM
C=C(CC(=O)O)C(=O)O [Itaconate, itaconate, reference compound] | > 100 µg/mL | > 100 µg/mL | – | – | –
